According to the NIST ThermoML archive (doi:10.1021/je800234h):
± gives the expanded uncertainty stated by the source.

Experiment: mn = molality of the nth substance listed, in mol/kg
Conditions: Liquid, Vibrating tube method

[Ca+2].[Cl-].[Cl-] [calcium chloride] + CCO
Conditions	mass density [kg/m3]
298.15 K, 210 kPa, m1 = 1.55	901.58 ± 0.37
298.15 K, 260 kPa, m1 = 1.266	881.44 ± 0.37
298.15 K, 280 kPa, m1 = 0.1743	800.14 ± 0.35
298.15 K, 480 kPa, m1 = 0.09327	793.4 ± 0.35
298.15 K, 670 kPa, m1 = 0.9896	861.73 ± 0.36
298.15 K, 1020 kPa, m1 = 0.4379	820.65 ± 0.35
298.15 K, 1170 kPa, m1 = 0.6899	839.86 ± 0.36
298.15 K, 5010 kPa, m1 = 0.6899	843.06 ± 0.36
298.15 K, 5020 kPa, m1 = 1.55	905.41 ± 0.38
298.15 K, 5030 kPa, m1 = 0.4379	824.03 ± 0.36
298.15 K, 5060 kPa, m1 = 0.09327	797.34 ± 0.36
298.15 K, 5060 kPa, m1 = 1.266	885.32 ± 0.37
298.15 K, 6330 kPa, m1 = 0.9896	866.36 ± 0.37
298.15 K, 6580 kPa, m1 = 0.1743	804.98 ± 0.36
298.15 K, 10030 kPa, m1 = 0.09327	801.45 ± 0.37
298.15 K, 10410 kPa, m1 = 1.55	909.48 ± 0.38
298.15 K, 10450 kPa, m1 = 0.4379	828.43 ± 0.37
298.15 K, 10830 kPa, m1 = 0.9896	869.87 ± 0.38
298.15 K, 10850 kPa, m1 = 1.266	889.78 ± 0.38
298.15 K, 11050 kPa, m1 = 0.6899	847.88 ± 0.38
298.15 K, 11330 kPa, m1 = 0.1743	808.85 ± 0.38
298.15 K, 14860 kPa, m1 = 1.266	892.71 ± 0.39
298.15 K, 15090 kPa, m1 = 0.9896	873.05 ± 0.39
298.15 K, 15120 kPa, m1 = 0.6899	850.99 ± 0.39
298.15 K, 15240 kPa, m1 = 1.55	912.94 ± 0.39
298.15 K, 15470 kPa, m1 = 0.09327	805.77 ± 0.39
298.15 K, 15480 kPa, m1 = 0.4379	832.33 ± 0.39
298.15 K, 15720 kPa, m1 = 0.1743	812.29 ± 0.39
298.15 K, 20020 kPa, m1 = 0.9896	876.57 ± 0.39
298.15 K, 20080 kPa, m1 = 1.266	896.35 ± 0.39
298.15 K, 20130 kPa, m1 = 0.6899	854.64 ± 0.4
298.15 K, 20260 kPa, m1 = 1.55	916.34 ± 0.39
298.15 K, 20460 kPa, m1 = 0.4379	836.02 ± 0.4
298.15 K, 20490 kPa, m1 = 0.1743	815.89 ± 0.41
298.15 K, 20640 kPa, m1 = 0.09327	809.69 ± 0.41
298.15 K, 25010 kPa, m1 = 1.55	919.38 ± 0.4
298.15 K, 25130 kPa, m1 = 0.9896	880.03 ± 0.4
298.15 K, 25310 kPa, m1 = 0.6899	858.24 ± 0.41
298.15 K, 25390 kPa, m1 = 0.09327	813.15 ± 0.43
298.15 K, 25410 kPa, m1 = 1.266	899.86 ± 0.4
298.15 K, 25750 kPa, m1 = 0.4379	839.75 ± 0.42
298.15 K, 25820 kPa, m1 = 0.1743	819.73 ± 0.42
298.15 K, 30060 kPa, m1 = 1.266	902.74 ± 0.41
298.15 K, 30110 kPa, m1 = 0.9896	883.22 ± 0.41
298.15 K, 30120 kPa, m1 = 0.6899	861.41 ± 0.42
298.15 K, 30190 kPa, m1 = 0.09327	816.48 ± 0.44
298.15 K, 30420 kPa, m1 = 1.55	922.62 ± 0.4
298.15 K, 30640 kPa, m1 = 0.4379	843.03 ± 0.43
298.15 K, 31460 kPa, m1 = 0.1743	823.58 ± 0.44
298.15 K, 34210 kPa, m1 = 0.6899	863.97 ± 0.43
298.15 K, 35050 kPa, m1 = 1.55	925.22 ± 0.41
298.15 K, 35340 kPa, m1 = 0.1743	826.11 ± 0.46
298.15 K, 35510 kPa, m1 = 0.9896	886.47 ± 0.42
298.15 K, 35640 kPa, m1 = 0.09327	820.09 ± 0.47
298.15 K, 35830 kPa, m1 = 0.4379	846.33 ± 0.45
298.15 K, 35910 kPa, m1 = 1.266	906.14 ± 0.41
298.15 K, 39770 kPa, m1 = 0.6899	867.27 ± 0.44
298.15 K, 39860 kPa, m1 = 0.9896	888.93 ± 0.43
298.15 K, 39920 kPa, m1 = 0.09327	822.78 ± 0.48
298.15 K, 39960 kPa, m1 = 1.55	927.8 ± 0.41
298.15 K, 39970 kPa, m1 = 0.4379	848.83 ± 0.46
298.15 K, 39980 kPa, m1 = 1.266	908.34 ± 0.42
298.15 K, 40180 kPa, m1 = 0.1743	829.13 ± 0.48
323.15 K, 150 kPa, m1 = 0.09327	771.32 ± 0.34
323.15 K, 240 kPa, m1 = 0.1743	777.83 ± 0.34
323.15 K, 310 kPa, m1 = 1.266	857.3 ± 0.36
323.15 K, 450 kPa, m1 = 0.4379	798.42 ± 0.35
323.15 K, 520 kPa, m1 = 1.55	876.88 ± 0.37
323.15 K, 1060 kPa, m1 = 0.6899	817.18 ± 0.35
323.15 K, 1570 kPa, m1 = 0.9896	839.21 ± 0.36
323.15 K, 4980 kPa, m1 = 0.4379	802.82 ± 0.36
323.15 K, 5060 kPa, m1 = 0.1743	782.74 ± 0.35
323.15 K, 5070 kPa, m1 = 1.266	861.31 ± 0.37
323.15 K, 5120 kPa, m1 = 1.55	881.08 ± 0.37
323.15 K, 5160 kPa, m1 = 0.9896	842.61 ± 0.36
323.15 K, 5240 kPa, m1 = 0.09327	776.5 ± 0.36
323.15 K, 5300 kPa, m1 = 0.6899	821.26 ± 0.36
323.15 K, 9780 kPa, m1 = 0.4379	807.29 ± 0.37
